Assay results as given in patent publication US6887890B2, “Compounds exhibiting thrombopoietin-like activities” (Chugai Seiyaku Kabushiki Kaisha, priority 2000, dated 2005).

Test system: Mpl-expressing Ba/F3 cell line (human mpl gene)
Test: Measurement of thrombopoietin (TPO) activity: viable cell count of Mpl-expressing Ba/F3 cell line (Cell Count Reagent SF, absorbance 450 nm)
Assay type: cell-based
Details: for Concentration: concentration corresponding to the maximum TPO activity value; for TPO activity: maximum TPO activity value, ODt/ODs×100 relative to maximum reaction of human TPO, Mpl-expressing Ba/F3 cells cultured at 37° C. for one day, at the concentration given
Experimental: The TPO activities of the compounds of the invention obtained in the aforementioned examples were measured by the procedure described below, for evaluation of their thrombopoietic effects.
Establishment of Mpl-expressing Ba/F3 Cell Line
The human mpl gene was cloned from cDNAs of the human erythroleukemia cell line HEL by PCR, and was incorporated into pCOS1 to construct an expression vector. The expression vector was transfected into Ba/F3 cells by electroporation method, and an Mpl-expressing Ba/F3 clone was established.
Measurement of Thrombopoietin (TPO) Activity
The cytokine-eliminated Mpl-expressing Ba/F3 line was plated in a 96-well plate at 25,000 cells/well. DMSO solutions containing the compounds obtained in each of the examples were then prepared to different specified concentration ranges, and each solution was added to the Mpl-expressing Ba/F3 cell line (final DMSO concentration: ≦0.1%), and the cell were cultured at 37° C. for one day. Human TPO (by R&D Systems or Genzyme) was used as a positive control.
Each of the cultured Mpl-expressing Ba/F3 cell lines was subjected to absorbance measurement at a wavelength of 450 nm (reference wavelength: 620 nm), corresponding to the viable cell count, using Cell Count Reagent SF (by Nacalai Tesque Inc.). The TPO activity of each compound for the Mpl-expressing Ba/F3 cell line was determined based on the following formula. TPO activity (%)=ODt/ODs×100
ODs: Absorbance at maximum reaction of human TPO (wavelength: 450-620 nm).
ODt: Absorbance of test solution (wavelength: 450-620 nm).
Tables 1 and 2 show the maximum TPO activity values and the corresponding concentrations of each compound, as obtained by the test described above.

Row | Structure (SMILES) | Concentration [µM] | TPO activity [%]
1 | Cl.N=C(N)NCCC[C@@H](NC(=O)Cc1ccsc1)C(=O)Nc1ccc(C(c2ccc(NC(=O)[C@@H](CCCNC(=N)N)NC(=O)Cc3ccsc3)cc2)c2ccc(NC(=O)[C@@H](CCCNC(=N)N)NC(=O)Cc3ccsc3)cc2)cc1 (stereo partly drawn) [Example 40, tris[4-[N-α-[2-(thiophen-3-yl)acetyl]-D-arginyl]aminophenyl]methane hydrochloride] | 12.5 | 59.0
2 | COc1ccc2[nH]c(C)c(CC(=O)N[C@@H](CCCN)C(=O)Nc3ccc(C(c4ccc(NC(=O)[C@H](CCCN)NC(=O)Cc5c(C)[nH]c6ccc(OC)cc56)cc4)c4ccc(NC(=O)[C@H](CCCN)NC(=O)Cc5c(C)[nH]c6ccc(OC)cc56)cc4)cc3)c2c1.O=C(O)C(F)(F)F [Example 135, tris[4-[N-α-[2-(5-methoxy-2-methyl-1H-indol-3-yl)acetyl]-L-ornithyl]aminophenyl]methane trifluoroacetate] | 50 | 15.8
3 | NCCCC[C@@H](NC(=O)Cc1c[nH]c2ccccc12)C(=O)Nc1ccc(N(c2ccc(NC(=O)[C@@H](CCCCN)NC(=O)Cc3c[nH]c4ccccc34)cc2)c2ccc(NC(=O)[C@@H](CCCCN)NC(=O)Cc3c[nH]c4ccccc34)cc2)cc1.O=C(O)C(F)(F)F [Example 201, tris[4-[N-α-[2-(1H-indol-3-yl)acetyl]-D-lysyl]aminophenyl]amine trifluoroacetate] | 25 | 110
4 | NCCCC[C@@H](NC(=O)c1cccc(O)c1)C(=O)Nc1ccc(C(c2ccc(NC(=O)[C@@H](CCCCN)NC(=O)c3cccc(O)c3)cc2)c2ccc(NC(=O)[C@@H](CCCCN)NC(=O)c3cccc(O)c3)cc2)cc1.O=C(O)C(F)(F)F [Example 186, tris[4-[N-α-(3-hydroxybenzoyl)-D-lysyl]aminophenyl]methane trifluoroacetate] | 25 | 35.8
5 | Cl.NCCCC[C@@H](NC(=O)[C@H](N)Cc1c[nH]c2ccccc12)C(=O)Nc1ccc(C(c2ccc(NC(=O)[C@@H](CCCCN)NC(=O)[C@H](N)Cc3c[nH]c4ccccc34)cc2)c2ccc(NC(=O)[C@@H](CCCCN)NC(=O)[C@H](N)Cc3c[nH]c4ccccc34)cc2)cc1 [Example 161, tris[4-[N-α-(D-tryptophyl)-D-lysyl]aminophenyl]methane hydrochloride] | 25 | 65.6
